The results in this text go back to patent US12649748B2, “Wee1 inhibitor and use thereof” (JIANGSU TASLY DIYI PHARMACEUTICAL CO., LTD., priority 2021, dated 2026).

In brackets after ≈: the same amount, converted by molar mass. Like-named read-outs stand apart in the source and are kept apart here. A value given as a limit tells only on which side of the number the result lay.

In one series the test system is MIA Paca-2 cells. Briefly: Anti-proliferative effect by Cell Titer-Glo, MIA Paca-2. In kind it is cell-based. The note with it: Homo sapiens, read-out: IC50 measured value MIA Paca-2. A digest of the protocol:
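Cells exposed to 9-point serial dilutions (duplicates, 0.2% DMSO final) for 3 days at 37 °C, 5% CO2. Viability by CellTiter-Glo luminescence; inhibition normalised to untreated-cell and medium controls, IC50 from variable-slope log(inhibitor)–response fit.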
On the technique in general: ATP-based viability assays read luminescence as a measure of living cells.

The nature of series [1]: Plasma protein binding (PPB), mouse. In kind it is in vitro ADME. As to conditions: 5 h dialysis, read-out: Plasma protein binding rate (%) Mouse (converted). How it is done: Sample preparation: The compound was dissolved in DMSO to a stock solution of 10 mM, then the compound was diluted with PBS to a secondary stock solution of 0.02 mM, and then the above 0.02 mM was diluted to 1 μM using blank plasma, which was the sample to be incubated.
Dialysis set-up preparation: 400 μL of blank PBS was first added to the white wells of the equilibrated dialysis plate and 200 μL of the configured plasma sample was added to the red wells, and the dialysis plate was sealed with a sealing film.
Recovery plate preparation: Two 96-well deep-well plates, labelled T0 and T5, were prepared and all plasma samples were added at n=2. 300 μL of acetonitrile (Verapamil-HCl, 4 ng/mL) was added directly to the TO plate, followed by 50 μL of blank PBS mix well for 5 min and left to stand in a 4° C. refrigerator until the end of the incubation.
Experimental Operation: The dialysis device and the T5 plate were incubated together for 5 h in a microplate thermostatic shaker (37° C., using 300 rpm or minimum speed). At the end of the incubation, 300 μL of acetonitrile (Verapamil-HCl, 4 ng/mL) was added and 50 μL of PBS solution was added. At the end of the dialysis incubation, a new 96-well deep well plate was taken. Add 50 μL of plasma well sample to the corresponding position of the 96-well plate, 300 μL of acetonitrile and 50 μL of blank PBS; take 50 μL of buffer well sample to the corresponding position of the 96-well plate, then add 300 μL of acetonitrile and 50 μL of blank plasma. Add 300 μL of acetonitrile (Verapamil-HCl, 4 ng/mL) to the plasma-containing wells of the T5 plate, and then 50 μL of PBS solution was added. Shake for 5 min to fully precipitate the proteins and centrifuge at 20,000 g for 10 min at 4° C. Add 200 μL of supernatant to 200 μL of pure water, mix well and perform LC-MS/MS analysis.
2. Data Processing and Parameter Calculation Plasma protein binding rate=[(Rpe−Rb)/Rpe]×100% Recovery=[(Rpe+Rb)/R5h]×100% Stability=(R5/R0)×100% where • Rpe=ratio of plasma-side testing sample peak area to internal standard • Rb=ratio of buffer side testing sample peak area to internal standard • R5=ratio of incubator stability sample peak area to internal standard • R0=ratio of refrigerator stability sample peak area to internal standard 3.

A short description of another series: Solubility test. Type of series: physicochemical. The note with it: aqueous buffer, thermodynamic from solid; buffer solution, shaken at constant temperature 24 h. How it is done:
The compound was placed in a buffer solution and shaken at constant temperature for 24 h. […] Chromatographic conditions: C18 column, mobile phase A: 0.02 M potassium dihydrogen phosphate:acetonitrile=90:10, mobile phase B: acetonitrile; V: 1.0 ml/min, T: 35° C., λ: 210 nm.

A further series addresses CYP2C9 (Homo sapiens, UniProt P11712). Briefly: Inhibition of cytochrome P450, CYP2C9. In kind it is in vitro ADME. The note with it: CYP2C9 enzyme, pH 7.4, probe BOMCC, read-out: CYP inhibition/% 2C9; for inhibition at 30 min, 1 µM: compound concentration 1 μM; for inhibition at 30 min, 10 µM: compound concentration 10 μM. How it is done: (§1) Enzymatic experiments were performed to quantify the inhibition of CYP450 enzyme activity of each isoform of CYP450 by small molecule inhibitors through fluorescence generated by the oxidation of the substrate by cytochrome P450. […] The Solution B composition used for the experiment was: 40 U/mL G6PDH (Sigma-aldrich, Cat #G6378). The substrate mix was 0.05× Solution A, 0.01× Solution B, 50 mM Potassium Phosphate, 0.01 mM BOMCC/0.01 mM EOMCC/0.001 mM DBOMF. […] The data were analyzed and processed using GraphPad Prism 6 software to obtain IC50 values.

Another series deals with CYP2C19 (Homo sapiens, UniProt P33261). Description: Inhibition of cytochrome P450, CYP2C19. Type of series: in vitro ADME. As to conditions: CYP2C19 enzyme, pH 7.4, probe EOMCC, read-out: CYP inhibition/% 2C19; for inhibition at 30 min, 1 µM: compound concentration 1 μM; for inhibition at 30 min, 10 µM: compound concentration 10 μM. How it is done:
as §1

Another series addresses CYP2D6 (Homo sapiens, UniProt P10635). Briefly: Inhibition of cytochrome P450, CYP2D6. As to conditions: CYP2D6 enzyme, pH 7.4, probe EOMCC, read-out: CYP inhibition/% 2D6; for inhibition at 30 min, 1 µM: compound concentration 1 μM; for inhibition at 30 min, 10 µM: compound concentration 10 μM. Type of series: in vitro ADME. How it is done:
as §1

[2] abbreviates: 72 h, MIA Paca-2 cells, 3 days, Cell Titer-Glo.

Chain of CYP2C19 (P33261 whole entry): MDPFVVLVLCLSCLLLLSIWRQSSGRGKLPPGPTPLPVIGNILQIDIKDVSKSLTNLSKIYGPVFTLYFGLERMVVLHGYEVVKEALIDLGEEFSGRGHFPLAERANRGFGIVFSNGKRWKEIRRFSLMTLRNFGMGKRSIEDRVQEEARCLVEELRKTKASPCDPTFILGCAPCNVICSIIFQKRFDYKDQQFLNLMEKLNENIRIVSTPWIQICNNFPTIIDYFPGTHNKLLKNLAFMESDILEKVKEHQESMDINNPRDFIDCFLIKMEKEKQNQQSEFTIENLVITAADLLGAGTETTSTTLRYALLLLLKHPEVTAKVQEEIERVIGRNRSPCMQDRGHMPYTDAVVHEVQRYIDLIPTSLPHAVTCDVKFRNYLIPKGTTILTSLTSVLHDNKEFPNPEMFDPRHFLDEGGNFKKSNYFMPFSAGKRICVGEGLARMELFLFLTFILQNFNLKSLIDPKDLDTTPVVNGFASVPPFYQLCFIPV
Chain of CYP2D6 (P10635 whole entry): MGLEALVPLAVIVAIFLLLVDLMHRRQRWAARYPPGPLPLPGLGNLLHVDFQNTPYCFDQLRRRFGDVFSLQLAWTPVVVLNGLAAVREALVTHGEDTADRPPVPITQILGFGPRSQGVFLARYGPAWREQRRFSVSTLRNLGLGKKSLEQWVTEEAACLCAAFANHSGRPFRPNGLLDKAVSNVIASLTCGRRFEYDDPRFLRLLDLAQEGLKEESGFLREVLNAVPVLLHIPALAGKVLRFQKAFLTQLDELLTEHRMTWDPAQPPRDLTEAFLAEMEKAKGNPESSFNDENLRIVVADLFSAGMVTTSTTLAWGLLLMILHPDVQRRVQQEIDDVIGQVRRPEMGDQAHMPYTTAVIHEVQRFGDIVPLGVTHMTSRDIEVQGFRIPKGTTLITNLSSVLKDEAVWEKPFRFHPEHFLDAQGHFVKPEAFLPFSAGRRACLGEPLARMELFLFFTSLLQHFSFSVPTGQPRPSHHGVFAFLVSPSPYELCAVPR
Chain of CYP2C9 (P11712 whole entry, canonical isoform): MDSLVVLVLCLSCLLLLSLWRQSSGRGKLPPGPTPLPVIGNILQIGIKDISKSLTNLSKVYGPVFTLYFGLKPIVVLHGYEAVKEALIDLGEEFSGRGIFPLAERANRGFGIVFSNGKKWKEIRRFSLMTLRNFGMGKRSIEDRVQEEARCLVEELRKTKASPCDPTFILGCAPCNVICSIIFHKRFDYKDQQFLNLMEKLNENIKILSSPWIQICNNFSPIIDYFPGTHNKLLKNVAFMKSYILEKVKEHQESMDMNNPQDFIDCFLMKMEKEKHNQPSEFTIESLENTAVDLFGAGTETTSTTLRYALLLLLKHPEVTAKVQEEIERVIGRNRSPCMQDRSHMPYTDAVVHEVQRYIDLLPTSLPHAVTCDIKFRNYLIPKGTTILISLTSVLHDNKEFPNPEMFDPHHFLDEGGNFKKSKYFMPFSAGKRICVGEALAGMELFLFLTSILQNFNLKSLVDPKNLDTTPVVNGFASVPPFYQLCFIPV

The term IC50 denotes the concentration at which inhibition is half-maximal. Usually solubility stands for the concentration that dissolves in the medium under given conditions. Lower therefore signals a poorly soluble substance. Turning to `C=CCn1c(=O)c2cnc(Nc3ccc(N4CCN(C)CC4)cc3)nc2n1-c1cccc(C(C)(C)O)n1` [AZD-1775, reference compound], the IC50 in the series with MIA Paca-2 cells (setting [2]) fell in the range of 100 to 1000 nM. In series [1], the fraction unbound at 5 h, 1 µM was 0.087. The amount in solution in “Solubility test” (solubility at 24 h) came to 30 µg/mL (≈ 59.9 µM).
As to `CN1CCN(c2ccc(Nc3ncc4cnn(-c5cccc(N=S(C)(C)=O)n5)c4n3)cc2)CC1` [Compound 1], the IC50 in the series with MIA Paca-2 cells (MIA PaCa-2, 72 h) was in the range of 100 to 1000 nM. For the same compound, the fraction unbound at 5 h, 1 µM in series [1] was 0.226. Also, in the series “Solubility test”, the concentration in solution (solubility at 24 h) came to 120 µg/mL (≈ 251 µM). In addition, the inhibition at 30 min, 1 µM on CYP2C9 was found to be 7.5%; on CYP2C19, 3.3%; on CYP2D6 it was 2.8%. Further, the results for the inhibition at 30 min, 10 µM at CYP2C9, at CYP2C19 and at CYP2D6 were 18.6%, 10.7% and 2%, respectively.
As to `CN1CCN(c2ccc(Nc3ncc4cnn(-c5cccc(C(C)(C)O)n5)c4n3)cc2)CC1` [Compound 2], the inhibition at 30 min, 1 µM is -10.6% on CYP2C9, 3.8% at CYP2C19 and 0.3% on CYP2D6. Moreover, the values for the inhibition at 30 min, 10 µM at CYP2C9, on CYP2C19 and at CYP2D6 were -16%, 9.8% and 3.1%, respectively.
`CS(C)(=O)=Nc1cccc(-n2ncc3cnc(Nc4ccc(N5CCOCC5)cc4)nc32)n1` [Compound 6]: the figures for the inhibition at 30 min, 1 µM on CYP2C9, on CYP2C19 and on CYP2D6 were 15.3%, -16.5% and -7.6%, respectively. Besides, the inhibition at 30 min, 10 µM at CYP2C9 was 13.1%; on CYP2C19, -8.3%; at CYP2D6, -19.4%.
Regarding `Cc1cc(Nc2ncc3cnn(-c4cccc(N=S(C)(C)=O)n4)c3n2)ccc1N1CCC(N(C)C)CC1` [Compound 14], in the series with MIA Paca-2 cells (setting [2]), the IC50 was less than 100 nM. For the same compound, in series [1], the fraction unbound at 5 h, 1 µM is 0.138.
As to `Cc1cc(Nc2ncc3cnn(-c4cccc(N=S(C)(C)=O)n4)c3n2)ccc1N1CCN(C)CC1` [Compound 16], the IC50 in the series on MIA Paca-2 cells (setting [2]) fell in the range of 100 to 1000 nM. For the same compound, the fraction unbound at 5 h, 1 µM in series [1] was 0.092. This compound came in with a solubility at 24 h in “Solubility test” of 350 µg/mL (≈ 712 µM).
